From PubChem BioAssay AID179 (DTP/NCI, 2004)
The source made the active and inactive calls.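 How the source made its calls: active means compounds giving half or more protection of infected cells from virus-caused growth loss, again on retest; inactive means the rest.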 Where a SMILES comes first, the peptide text is derived from it. [ ]: non-standard residue; d: D form. The star is where a group is joined. Phe(4-NO2) = N[CH](Cc1ccc([N+](=O)[O-])cc1)C(=O)O; Boc = CC(C)(C)OC(=O)*; Lac = C[CH](O)C(=O)O; OBn = c1ccc(CO*)cc1

Tested on: CEM cells HIV-1 protection, formazan growth assay
Assay: NCI AIDS Antiviral Assay
Details: for IC50: measured here: growth of uninfected CEM cells
In short: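 CEM (human) cells, HIV-1 infected vs uninfected, 5-point dosing, formazan growth read-out. Retest threshold 50% protection.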

Row | Compound | EC50 | IC50 | outcome
1 | COc1cccc(OC)c1NC(=O)C(=O)Nn1c(NNC(=O)c2ccncc2)nc2ccccc2c1=O | > 501 µM | > 501 µM | –
2 | CC(C)Oc1c(O)c2c3c(oc(=O)n3C=CC2c2ccccc2)c1OC(C)C (stereo not given) | > 200 µM | 21.9 µM | –
3 | O=C1CC(CC(=O)c2ccc(Br)cc2)C(=O)/C1=C(/O)c1ccc(Br)cc1 (stereo not given) | > 200 µM | 41.7 µM | –
4 | C=CCCC1(CC(Sc2ccccc2)P(=O)(c2ccccc2)c2ccccc2)OCCO1 (stereo not given) | > 200 µM | > 200 µM | –
5 | Cc1nc(C)c(N2CCNCC2)c(=O)[nH]1 | – | – | inactive
6 | CCC(C)C(CC)C(=O)NC(N)=O (stereo not given) | > 200 µM | > 200 µM | –
7 | CCOC(=O)c1cc(Cl)cc2c(=O)c3c(O)c4[nH]c5c(C(=O)OCC)cc(Cl)cc5c(=O)c4c(O)c3[nH]c12 | > 100 µM | 4.9 µM | –
8 | CCOC(=O)Nc1cc(NC(/C=N/NC(C)=O)C(=O)OCC)c(OC)cc1NC(C)=O (stereo not given) | > 200 µM | > 200 µM | –
9 | CCOC(=O)/C=C1\C[C@H](NC(=O)OCc2ccccc2)C(=O)N1CC(=O)OCC | > 200 µM | > 200 µM | –
10 | Cc1nc2cc(Cl)cc(N)c2nc1C | > 631 µM | 295 µM | –
11 | O=C1C2CSCC1CN(Cc1ccccc1)C2 | > 525 µM | > 525 µM | –
12 | CC(=O)N(C)OC(=O)CC(=O)c1ccccc1 | > 776 µM | 661 µM | –
13 | COc1ccc(NC(=O)c2c(NC(=O)CN3CCOCC3)c(C#N)c3n2CCC3)cc1 | > 100 µM | > 100 µM | –
14 | CCOP(=S)(OCC)Oc1cc(C)nc(C(C)C)n1 | > 309 µM | > 309 µM | –
15 | Nc1ccc2c(SCc3ccc([N+](=O)[O-])cc3)c3ccccc3nc2c1 | > 20 µM | 3.02 µM | –
16 | CN(C)CC1CCCC(CN(C)C)C1O (stereo not given) | > 871 µM | > 871 µM | –
17 | CCOC1OC(CO)C(O)CC1n1ccc(=O)[nH]c1=O (stereo not given) | > 200 µM | 97.7 µM | –
18 | O=C1C=C(c2c(O)ccc3ccccc23)c2ccccc2C1=O | – | – | inactive
19 | CC(=O)c1cc(CC2Cc3cc4c(cc3C2=O)CCC4)cc2c1CCC2 (stereo not given) | > 200 µM | 12.9 µM | –
20 | CCCCCCCCCCCCCCCCCCNC(=S)/N=C\C1=C(O)c2ccccc2C1=O | > 200 µM | 36.3 µM | –
21 | O=C(O)/C(=C\c1cc2c(cc1[N+](=O)[O-])OCO2)c1cc2c(cc1Br)OCO2 | > 200 µM | 110 µM | –
22 | N#C/C(=C\c1ccc[nH]1)C(=O)c1ccccc1 | > 309 µM | > 309 µM | –

Row | Compound | EC50 | IC50 | outcome
23 | COC(=O)[C@@H](O)[C@](O)(CCC(C)C)C(=O)O[C@@H]1C(OC)=C[C@]23CCCN2CCc2cc4c(cc2[C@H]13)OCO4 | > 245 µM | 0.575 µM | –
24 | [N-]=[N+]=Nc1ccc2c(c1)Sc1ccccc1N2CCCCCl | > 200 µM | 26.9 µM | –
25 | OC(C#CCN1CCCC1)(c1ccccc1)c1ccc(Br)cc1.[C-]#[O+].[C-]#[O+].[C-]#[O+].[C-]#[O+].[C-]#[O+].[C-]#[O+].[Co].[Co] (stereo not given) | > 200 µM | 7.08 µM | –
26 | CCOC(=O)c1ccccc1NNC(=O)CCC(=O)O | > 224 µM | 219 µM | –
27 | CCOC(=O)c1c2ccccc2n2c(=O)n(-c3ccccc3)nnc12 | > 200 µM | 35.5 µM | –
28 | COC(=O)CNC(=O)/C=C/[C@H](O[Si](C)(C)C(C)(C)C)[C@H](/C=C/C(=O)NCC(=O)OC)O[Si](C)(C)C(C)(C)C | > 25.1 µM | > 25.1 µM | –
29 | COc1cc(OC)cc(C2=NNc3n[nH]c(=S)n3N2)c1 | > 123 µM | > 123 µM | –
30 | CSc1nc(C(N)=O)c(NC(=O)c2ccccc2)s1 | > 200 µM | 166 µM | –
31 | CCC[CH2][Sn]([CH2]CCC)([O]C(=O)Cc1ccc(F)cc1)[O]C(=O)Cc1ccc(F)cc1 | > 25.1 µM | 4.79 µM | –
32 | COC12OCCN(C)C1=CC(=O)C1N=NCC12 (stereo not given) | – | – | inactive
33 | CCC1(c2c(F)c(F)c(N)c(F)c2F)CCC(=O)NC1=O (stereo not given) | – | – | inactive
34 | Oc1ccc2c(c1)OCC1c3ccccc3OC21 (stereo not given) | – | – | inactive
35 | O=C(CSc1cc(-c2ccc(Cl)cc2)s[s+]1)c1ccccc1 | > 200 µM | 52.5 µM | –
36 | O=C1OC(C2Cc3ccc4c(c3C2=O)CCCC4)c2ccccc21 (stereo not given) | > 200 µM | 33.9 µM | –
37 | NNC(=O)CCC(=O)Nc1cc(Cl)c(Cl)cc1Cl | > 115 µM | > 115 µM | –
38 | CC(OC(=O)C(Cc1ccccc1)NC(=O)C(Cc1ccccc1)NC(=O)OC(C)(C)C)C(=O)OCc1ccccc1 (stereo not drawn) (Boc-Phe-Phe-[Lac]-OBn; configuration not given here) | > 200 µM | 105 µM | –
39 | CN(C)C=C(S(C)(=O)=O)S(C)(=O)=O | > 200 µM | 126 µM | –
40 | O=C(O)c1ccccc1CC(Cc1ccc2c(c1)CCC2)C(=O)O (stereo not given) | > 200 µM | > 200 µM | –
41 | COc1cc(OS(=O)(=O)O)c2c(c1)cc(O)c1c(=O)cc(C)oc12 | > 151 µM | > 151 µM | –
42 | Cn1c2ccccc2n2c3ccccc3c(=O)c(C#N)c12 | > 200 µM | 2.57 µM | –
43 | O=C(CCCC[n+]1ccccc1)Sc1ccccc1C(=O)Nc1ccc(S(=O)(=O)Nc2ncccn2)cc1 | 17 µM | 56.2 µM | –
44 | CCOC(=O)c1sc2nc(SC)nc3c2c1NCN3c1ccccc1Cl | > 200 µM | > 200 µM | –

Row | Compound | EC50 | IC50 | outcome
45 | O=[N+]([O-])c1ccccc1S(=O)(=O)Nc1ccccc1 | – | – | inactive
46 | CN(N)c1cc(=O)[nH]c(=O)[nH]1 | > 200 µM | > 200 µM | –
47 | c1ccc2c(c1)CC1COc3ccccc3C1O2 (stereo not given) | > 200 µM | 70.8 µM | –
48 | COC1/C=C/C=C/C=C/CC(OC(=O)C(C)NC(=O)C2CCCCC2)C(C)C(O)/C(C)=C\CCc2c(O)c(cc3c2SCC(=O)N3)NC(=O)C1 (stereo not given) | > 2 µM | 0.229 µM | –
49 | CC(=O)N(C(C)=O)c1cnc2c(nc3cc(C)ccn32)c1C | > 200 µM | 52.5 µM | –
50 | O=C1C2c3[nH]c4ccccc4c3C3CCC(c4ccccc4)CC3C2C(=O)N1c1ccccc1 (stereo not given) | – | – | inactive
51 | CC(=O)Oc1cc(/C=C(\C#N)C(=O)NCCCCNC(=O)/C(C#N)=C/c2cc(OC(C)=O)c(OC(C)=O)c(OC(C)=O)c2)cc(OC(C)=O)c1OC(C)=O | > 200 µM | 21.9 µM | –
52 | N#CC(C(=O)/C(=N/N)C(C#N)c1ccc(Cl)cc1)c1ccc(Cl)cc1 (stereo not given) | > 676 µM | > 676 µM | –
53 | COc1cc([C@@H]2OC(=O)C3C2C(=O)O[C@H]3c2ccc(O)c(OC)c2)ccc1O (stereo not given in full) | – | – | inactive
54 | CP1(=S)CCC2=C1c1ccc(O)cc1CC2 (stereo not given) | – | – | inactive
55 | Cc1c(Cl)cccc1N=NC(=O)NNc1cccc(Cl)c1C | > 200 µM | 33.1 µM | –
56 | O=C1CC2CCCC(=O)C23CCC[C@H]13 (stereo not given in full) | > 324 µM | > 324 µM | –
57 | N#CC1=C(C#N)/C(=C(\C#N)C(C#N)C#N)N=C1N | > 100 µM | 37.2 µM | –
58 | CCCCNC(=O)n1ncc2cc([N+](=O)[O-])c([N+](=O)[O-])cc21 | > 200 µM | 25.7 µM | –
59 | NNC(=O)CCc1c[nH]c2ccccc12 | > 1230 µM | 661 µM | –
60 | CCCCCCCCCCSS(=O)(=O)c1ccc(C)cc1 | > 21.9 µM | 9.55 µM | –
61 | COc1cccc(CC2NCCc3c2[nH]c2ccccc32)c1 (stereo not given) | > 251 µM | 46.8 µM | –
62 | COC(=O)C(C(=O)C(=O)Nc1cccc(O)c1)c1nc2ccc(Cl)cc2[nH]c1=O (stereo not given) | > 87.1 µM | 85.1 µM | –
63 | OCC1OC(n2cnc3cncnc32)CC1O (stereo not given) | – | – | inactive
64 | NC(N)=NCCCC(N=c1c2ccccc2n(O)c2ccccc12)C(=O)O (stereo not given) | – | – | inactive
65 | Cc1cc(OCC(O)CO)ccc1Cl (stereo not given) | > 1150 µM | 550 µM | –
66 | CC(=O)Oc1c(-c2ccccc2)[nH]c2cc([N+](=O)[O-])c(/C(Cl)=C/c3ccccc3)cc12 | > 6.31 µM | > 6.31 µM | –

Row | Compound | EC50 | IC50 | outcome
67 | COC(=O)N/N=C(/CCN1CCCC1)CC(c1ccccc1)c1c(O)c2ccccc2oc1=O (stereo not given) | > 89.1 µM | 83.2 µM | –
68 | O=C1c2sc(-c3ccc(F)cc3)cc2-n2cccc21 | > 200 µM | 120 µM | –
69 | Cc1ccc([N+](=O)[O-])c2c(NCCC[N+](C)(C)[O-])c3ccccc3nc12 | > 2 µM | 0.316 µM | –
70 | O=c1[nH]c2cc(Cl)ccc2nc1/C(=N\Nc1ccccc1)C(O)c1ccc(Cl)c(Cl)c1 (stereo not given) | > 219 µM | 18.2 µM | –
71 | O=C(O)CN(c1ccccc1)S(=O)(=O)c1ccc([N+](=O)[O-])cc1 | – | – | inactive
72 | COC12C=CC(CC1)c1c2c(O)c2nc(C)c(C)nc2c1O (stereo not given) | > 200 µM | 3.16 µM | –
73 | N#Cc1nc(-c2cnccn2)oc1N | > 200 µM | 182 µM | –
74 | Cc1cc(C(=O)Nc2ccc(NC3=NCCN3)cc2)c(C)cc1C(=O)Nc1ccc(NC2=NCCN2)cc1 | > 200 µM | 20.4 µM | –
75 | Clc1ccc2c(c1)C1C(CO2)C(c2ccccc2)=NN1c1ccccc1 (stereo not given) | > 27.5 µM | > 27.5 µM | –
76 | O=[N+]([O-])c1cccc(C2=NOC3C4CCC(C4)C23)c1 (stereo not given) | 0.135 µM | 66.1 µM | –
77 | COC(=O)[C@@H]1C[C@H]2[C@H](c3ccccc3Br)[C@@H](OC(C)=O)[C@@H](OCc3ccccc3)ON2O1 | > 200 µM | > 200 µM | –
78 | CC(=O)c1c(O)c2c(c(C(C)=O)c1O)OC(C)(C)C=C2 | > 9.55 µM | > 9.55 µM | –
79 | O=[N+]([O-])/C(Cl)=C(/C(Cl)=C(Cl)Cl)N1CCCCC1 | > 200 µM | 12.3 µM | –
80 | NC(=O)CCC(NCc1c2ccccc2[n+]([O-])c2ccccc12)C(=O)O (stereo not given) | – | – | inactive
81 | CN(C)C(c1ccccc1)C(O)c1ccccc1 (stereo not given) | – | – | inactive
82 | CCOP12(OCC)NC(=O)OC1(C(F)(F)F)c1ccccc1O2 (stereo not given) | > 141 µM | > 141 µM | –
83 | CNC(=O)CCC(NC(=O)OC(C)(C)C)C(=O)NC(Cc1ccc([N+](=O)[O-])cc1)C(=O)NCC(=O)NC (stereo not given) (Boc-Glu(NHMe)-[Phe(4-NO2)]-Gly-NHMe; configuration not given here) | > 200 µM | > 200 µM | –
84 | COc1cccc([N+](=O)[O-])c1N=O | > 200 µM | 102 µM | –
85 | O=c1[nH]nc(-c2ccccc2)n1O | > 200 µM | > 200 µM | –
86 | Oc1c(Br)ccc2cccnc12 | > 20 µM | 0.794 µM | –
87 | CCOC(=O)c1cc(C(=O)OCC)c2ccccn2c1=O | > 100 µM | 43.7 µM | –
